How the values were obtained:
barnyardgrass [1] = assay: Test Example 4: herbicidal test by upland foliage treatment; type: in vivo, Echinochloa crus-galli L.; design: key: 5: Withered; 4.5: Herbicidal effect (or phytotoxicity) in a range of 90 to 99%; 4: Herbicidal effect (or phytotoxicity) in a range of 80 to 89%; 3.5: Herbicidal effect (or phytotoxicity) in a range of 70 to 79%; 3: Herbicidal effect (or phytotoxicity) in a range of 60 to 69%; 2.5: Herbicidal effect (or phytotoxicity) in a range of 50 to 59%; 2: Herbicidal effect (or phytotoxicity) in a range of 40 to 49%; 1.5: Herbicidal effect (or phytotoxicity) in a range of 30 to 39%; 1: Herbicidal effect (or phytotoxicity) in a range of 20 to 29%; 0.5: Herbicidal effect (or phytotoxicity) in a range of 1 to 19%; 0: No herbicidal effect (or no phytotoxicity)
Protocol: (§1) Into each plastic pot of 120 cm^2, upland soil was filled, then seeds of barnyardgrass, crabgrass, redroot pigweed and rice flatsedge were sown, and they were grown in a greenhouse until barnyardgrass. reached 3-leaf stage. Each wettable powder prepared from the test compound in accordance with Formulation Example 3 was diluted with water to give the amount of the active ingredient corresponding to 4 kg/hectare, and the diluted solution was uniformly sprayed at an application rate of 1000 liter/hectare from the top of plants by means of a small size spray, when barnyardgrass was in the 3-leaf stage. They were grown in a greenhouse, and twenty days after the application, the herbicidal effects were evaluated in accordance with the standards as identified in Table 5.

rice flatsedge = assay: Test Example 3: herbicidal test by upland soil treatment; type: in vivo, Cy^perus iria L.; design: key: 5: Withered; 4.5: Herbicidal effect (or phytotoxicity) in a range of 90 to 99%; 4: Herbicidal effect (or phytotoxicity) in a range of 80 to 89%; 3.5: Herbicidal effect (or phytotoxicity) in a range of 70 to 79%; 3: Herbicidal effect (or phytotoxicity) in a range of 60 to 69%; 2.5: Herbicidal effect (or phytotoxicity) in a range of 50 to 59%; 2: Herbicidal effect (or phytotoxicity) in a range of 40 to 49%; 1.5: Herbicidal effect (or phytotoxicity) in a range of 30 to 39%; 1: Herbicidal effect (or phytotoxicity) in a range of 20 to 29%; 0.5: Herbicidal effect (or phytotoxicity) in a range of 1 to 19%; 0: No herbicidal effect (or no phytotoxicity); conditions: evaluated twenty days after application
Excerpt: (§2) Into each plastic pot of 600 cm^2, upland soil was filled, then seeds of barnyardgrass, crabgrass, green foxtail, redroot pigweed, rice flatsedge, rice, wheat, maize, soybean, cotton and sugar beet were sown, and they were covered with soil. A predetermined amount of the wettable powder prepared from the test compound in accordance with Formulation Example 3 and diluted with water, was uniformly applied to the surface of the soil at an application rate of 1000 liter/hectare by means of a small size spray. They were grown in a greenhouse, and twenty days after the application, the herbicidal effects and phytotoxicity were evaluated in accordance with the standards as identified in Table 5.

monochoria = assay: Test Example 1: herbicidal test by water treatment in a paddy field; type: in vivo, Monochoria vaginalis Presl; design: key: 5: Withered; 4.5: Herbicidal effect (or phytotoxicity) in a range of 90 to 99%; 4: Herbicidal effect (or phytotoxicity) in a range of 80 to 89%; 3.5: Herbicidal effect (or phytotoxicity) in a range of 70 to 79%; 3: Herbicidal effect (or phytotoxicity) in a range of 60 to 69%; 2.5: Herbicidal effect (or phytotoxicity) in a range of 50 to 59%; 2: Herbicidal effect (or phytotoxicity) in a range of 40 to 49%; 1.5: Herbicidal effect (or phytotoxicity) in a range of 30 to 39%; 1: Herbicidal effect (or phytotoxicity) in a range of 20 to 29%; 0.5: Herbicidal effect (or phytotoxicity) in a range of 1 to 19%; 0: No herbicidal effect (or no phytotoxicity); conditions: evaluated thirty days after application
Protocol: (§3) Into each porcelain pot having a diameter of 10 cm, paddy soil was filled and puddled, and seeds of barnyardgrass (Echinochloa crus-galli L.), smallflower flatsedge, monochoria and Japanese bulrush were sown, and water was filled in a-depth of 3 cm. One day later, a predetermined amount of the wettable powder prepared in Formulation Example 3 and diluted with water was dropwise applied to the surface of the water (dose of the active ingredient: 4 kg/hectare). Thereafter, they were grown in a green house. Thirty days after the application, the herbicidal effects were evaluated in accordance with the standards as identified in Table 5.

redroot pigweed = assay: Test Example 4: herbicidal test by upland foliage treatment; type: in vivo, Amaranthus retroflexus L.
Protocol: as §1

barnyardgrass [2] = assay: Test Example 3: herbicidal test by upland soil treatment; type: in vivo, Echinochloa crus-galli L.; design: key: 5: Withered; 4.5: Herbicidal effect (or phytotoxicity) in a range of 90 to 99%; 4: Herbicidal effect (or phytotoxicity) in a range of 80 to 89%; 3.5: Herbicidal effect (or phytotoxicity) in a range of 70 to 79%; 3: Herbicidal effect (or phytotoxicity) in a range of 60 to 69%; 2.5: Herbicidal effect (or phytotoxicity) in a range of 50 to 59%; 2: Herbicidal effect (or phytotoxicity) in a range of 40 to 49%; 1.5: Herbicidal effect (or phytotoxicity) in a range of 30 to 39%; 1: Herbicidal effect (or phytotoxicity) in a range of 20 to 29%; 0.5: Herbicidal effect (or phytotoxicity) in a range of 1 to 19%; 0: No herbicidal effect (or no phytotoxicity); conditions: evaluated twenty days after application
Excerpt: as §2

Japanese bulrush = assay: Test Example 1: herbicidal test by water treatment in a paddy field; type: in vivo, Scir^pus juncoides Roxb.; design: key: 5: Withered; 4.5: Herbicidal effect (or phytotoxicity) in a range of 90 to 99%; 4: Herbicidal effect (or phytotoxicity) in a range of 80 to 89%; 3.5: Herbicidal effect (or phytotoxicity) in a range of 70 to 79%; 3: Herbicidal effect (or phytotoxicity) in a range of 60 to 69%; 2.5: Herbicidal effect (or phytotoxicity) in a range of 50 to 59%; 2: Herbicidal effect (or phytotoxicity) in a range of 40 to 49%; 1.5: Herbicidal effect (or phytotoxicity) in a range of 30 to 39%; 1: Herbicidal effect (or phytotoxicity) in a range of 20 to 29%; 0.5: Herbicidal effect (or phytotoxicity) in a range of 1 to 19%; 0: No herbicidal effect (or no phytotoxicity); conditions: evaluated thirty days after application
Protocol: as §3

[3] = active ingredient 4 kg/hectare, foliage spray 1000 liter/hectare at 3-leaf stage of barnyardgrass, twenty days after application
[4] = dose of the active ingredient 4 kg/hectare, wettable powder applied to water surface one day after sowing
[5] = water treatment in paddy field pot, dose of active ingredient 4 kg/hectare
[6] = upland foliage treatment, 4 kg/hectare active ingredient, sprayed at 1000 liter/hectare at barnyardgrass 3-leaf stage, evaluated twenty days after application

Structure (SMILES) | Herbicidal effects Barnyard-grass (barnyardgrass [1]; [3]) | Herbicidal effects Rice flatsedge (rice flatsedge; Dose 1 kg/HA) | Herbicidal effects Rice flatsedge (rice flatsedge; Dose 4 kg/HA) | Herbicidal effects Monochoria (monochoria; [4]) | Herbicidal effects Redroot pigweed (redroot pigweed; [3]) | Herbicidal effects Barnyard-grass (barnyardgrass [2]; Dose 1 kg/HA) | Herbicidal effects Barnyard-grass (barnyardgrass [2]; Dose 4 kg/HA) | Herbicidal effects Japanese bulrush (Japanese bulrush; [4]) | Herbicidal effects Monochoria (monochoria; [5]) | Herbicidal effects Japanese bulrush (Japanese bulrush; [5]) | Herbicidal effects Barnyard-grass (barnyardgrass [1]; [6]) | Herbicidal effects Redroot pigweed (redroot pigweed; [6])
CN(C)C(=O)NOc1cc(Cl)ccc1Cl [Compound No. 1, 3-(2,5-Dichlorophenoxy)-1,1-dimethyl urea] | 4 (Herbicidal effect (or phytotoxicity) in a range of 80 to 89%) | 5 | 5 | 5 | 4 (Herbicidal effect (or phytotoxicity) in a range of 80 to 89%) | 5 | 5 | 5 |  |  |  | 
CC(C)N(C)C(=O)NOc1cc(Cl)cc(Cl)c1 [Compound No. 186, 3-(3,5-Dichlorophenoxy)-1-isopropyl-1-methyl urea trichloroacetate] | 5 | 5 | 5 |  | 2 (Herbicidal effect (or phytotoxicity) in a range of 40 to 49%) | 5 | 5 |  | 5 | 5 |  | 
CON(C)C(=O)NOc1cc(Cl)ccc1Cl [Compound No. 242, 3-(2,5-Dichlorophenoxy)-1-methoxy-1-methyl urea] |  | 5 | 5 |  |  | 5 | 5 |  | 5 | 5 | 4 (Herbicidal effect (or phytotoxicity) in a range of 80 to 89%) | 3 (Herbicidal effect (or phytotoxicity) in a range of 60 to 69%)
COCCNC(=O)NOc1cc(Cl)ccc1Cl [Compound No. 243] |  | 5 | 5 |  |  | 5 | 5 |  | 5 | 5 | 5 | 4 (Herbicidal effect (or phytotoxicity) in a range of 80 to 89%)

— EP0183174A2, “Substituted phenoxy urea, processes for its preparation and herbicide containing it as active ingredient” (KUMIAI CHEMICAL INDUSTRY CO., LTD., priority 1984, dated 1986)
